Source: patent US11583507B2, “Direct AMPK activator compounds” (SOCIETE DES PRODUITS NESTLE S.A., priority 2018, dated 2023)
Each block holds one molecule with its values, some of them ahead of it.

How the values were obtained:
AMPKα2β1γ1 (211) = target: T1, AMPKα2β1γ1 (211) (Homo sapiens, UniProt P54619+P54646+Q9Y478); experiment: AMPK in vitro activity assay (HTRF-KinEASE), phosphorylated bacterially-expressed complex; type: biochemical; details: fold activation vs complex without compound; 30 mins incubation
T1 construct: His; made in house; host or cells: bacteria
T1 sequence (P54646 whole entry): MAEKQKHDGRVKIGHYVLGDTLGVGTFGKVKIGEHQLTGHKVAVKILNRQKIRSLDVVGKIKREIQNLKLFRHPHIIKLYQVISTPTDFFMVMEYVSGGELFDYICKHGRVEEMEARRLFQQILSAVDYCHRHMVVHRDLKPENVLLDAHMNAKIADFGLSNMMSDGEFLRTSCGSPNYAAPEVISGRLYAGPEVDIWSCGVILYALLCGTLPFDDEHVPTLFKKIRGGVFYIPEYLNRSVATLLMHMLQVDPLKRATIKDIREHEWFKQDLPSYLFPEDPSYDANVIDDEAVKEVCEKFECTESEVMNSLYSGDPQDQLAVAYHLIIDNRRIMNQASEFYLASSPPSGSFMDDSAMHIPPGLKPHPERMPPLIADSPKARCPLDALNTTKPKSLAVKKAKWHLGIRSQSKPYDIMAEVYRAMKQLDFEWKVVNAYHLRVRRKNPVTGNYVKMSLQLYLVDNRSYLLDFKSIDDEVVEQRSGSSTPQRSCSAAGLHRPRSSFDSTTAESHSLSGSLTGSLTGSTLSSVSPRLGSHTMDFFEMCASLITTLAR
T1 sequence (Q9Y478 whole entry): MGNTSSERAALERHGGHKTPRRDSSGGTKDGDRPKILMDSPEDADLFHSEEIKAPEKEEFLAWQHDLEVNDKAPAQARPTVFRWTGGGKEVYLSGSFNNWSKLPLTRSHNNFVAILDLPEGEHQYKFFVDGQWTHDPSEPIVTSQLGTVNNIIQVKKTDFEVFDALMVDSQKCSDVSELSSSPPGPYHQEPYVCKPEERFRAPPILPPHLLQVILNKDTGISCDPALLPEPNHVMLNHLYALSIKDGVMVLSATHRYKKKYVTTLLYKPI
T1 sequence (P54619 whole entry): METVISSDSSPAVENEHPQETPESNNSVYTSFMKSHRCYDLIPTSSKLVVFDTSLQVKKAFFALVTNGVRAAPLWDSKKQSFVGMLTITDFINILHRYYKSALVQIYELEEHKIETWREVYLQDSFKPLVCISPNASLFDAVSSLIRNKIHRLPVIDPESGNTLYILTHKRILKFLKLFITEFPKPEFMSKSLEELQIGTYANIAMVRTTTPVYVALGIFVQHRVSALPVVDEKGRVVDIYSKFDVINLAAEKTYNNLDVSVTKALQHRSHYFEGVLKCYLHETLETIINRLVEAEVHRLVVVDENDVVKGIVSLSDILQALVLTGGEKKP
Method: (§1) Lusianthridin (CAS 87530-30-1) was isolated from Thunia alba fruit. It was sourced from Analyticon (NP-012362). The plant was purchased through Analyticon's biomaterial supplier in 2003. The country of origin is Nepal. The AMPK heterotrimers were expressed in bacteria and purified through the His-α subunit by nickel purification. AMPK complexes were purified through gel filtration and phosphorylated by incubation with CaMKKβ, and further purified with a final gel filtration purification step. Phosphorylated purified AMPK was incubated with varying concentrations of ligand for 30 mins using substrate and reagents from the HTRF-KinEASE Cisbio assay kit (STK S1 Kit). Phosphorylation of the substrate was measured by incubating with donor and acceptor antibodies for 2 h at room temperature as per the manufacturer's protocol (and Coulerie et al., (2016) PMID: 27792327) and phosphorylated peptide detected by performing HTRF. The 665 nm/620 nm ratio was determined and the results are plotted as fold activation compared to the respective AMPK complex without any compound.

[1] = system: AMPK substrate, acetyl-CoA carboxylase (ACC); experiment: pACC HTRF assay in U2OS Flp-In T-REx cells; type: cell-based; details: 1 h, varying concentrations, dose-dependent
Method: U2OS Flp-In T-REx cells were seeded at 100 K in a 96-well plate and left overnight at 37 C in DMEM GlutaMAX (Thermo Fisher Scientific) supplemented with 10% (vol/vol) FBS and 100 U/ml penicillin G, and 100 μg/ml streptomycin. Cells were treated for 1 h with varying concentrations of Lusianthridin in media lacking FBS and then cells were lysed in 50 μl of Cisbio lysis buffer #1 supplemented with blocking solution as per the manufacturer's protocol (Cisbio). Cells were lysed for 30 mins at room temperature before 16 μl of lysate was incubated with 4 μl of the HTRF antibodies (1:40 dilution of the acceptor and donor (p)ACC antibodies, as per the manufacturers protocol). Lysates were incubated overnight with the antibodies before 665 nm/620 nm ratio was determined using a MolecularDevices i3 plate reader (with a HTRF cartridge add-on). For western blot analysis, SDS-sample buffer was added to the remainder of the lysate, denatured at 95 C and then subjected to western blot analysis with phospho-specific and total ACC antibodies (Cell Signalling). Bands were visualized by incubating with Li-Cor secondary antibody and scanned on a Li-Cor Odyssey machine.

[2] = system: differentiated C2C12 cells; experiment: Glucose uptake (3H-2-deoxyglucose) into differentiated C2C12 cells; type: cell-based; details: Lusianthridin 100 μM for 4 h at 37 C
Method: C2C12 cells were maintained in DMEM GlutaMAX supplemented with 10% (vol/vol) FBS and 100 U/ml penicillin G, and 100 μg/ml streptomycin. C2C12 myoblasts were differentiated into myotubes by 7 days of culture in DMEM GlutaMAX supplemented with 2% (vol/vol) horse serum and antibiotics. Cells were transferred to serum-free media for 24 hours, before equilibrating with bicarbonate-free medium prior to treatment. Cells were treated with Control (DMSO 1% final concentration) or 100 μM Lusianthridin in the presence of ^3H-2-deoxyglucose (in Krebs-Hepes buffer containing sodium pyruvate). Cells were lysed and the quantity of ^3H determined in these samples using a scintillation counter.
Activation of AMPK in muscle cells has been previously shown to increase glucose uptake. […] Differentiated C2C12 cells were treated with either control or 100 μM Lusianthridin for 4 h at 37 C. Glucose uptake was determined by monitoring the uptake of ^3H-2-deoxyglucose into cells. […] This is consistent with the important role of AMPK in mediating glucose uptake in muscle.

[3] = system: AMPK α2β1γ1 ΔCBM mutant (211 ΔCBM); experiment: AMPK in vitro activity assay (HTRF-KinEASE), ΔCBM mutant; type: biochemical; details: carbohydrate-binding module deleted
Method: as §1

AMPKα1β1γ1 (111) = target: T2, AMPKα1β1γ1 (111) (Homo sapiens, UniProt P54619+Q13131+Q9Y478); experiment: AMPK in vitro activity assay (HTRF-KinEASE), α1-containing complex; type: biochemical; details: fold activation vs complex without compound
T2 construct: His; made in house; host or cells: bacteria
T2 sequence (Q13131 whole entry): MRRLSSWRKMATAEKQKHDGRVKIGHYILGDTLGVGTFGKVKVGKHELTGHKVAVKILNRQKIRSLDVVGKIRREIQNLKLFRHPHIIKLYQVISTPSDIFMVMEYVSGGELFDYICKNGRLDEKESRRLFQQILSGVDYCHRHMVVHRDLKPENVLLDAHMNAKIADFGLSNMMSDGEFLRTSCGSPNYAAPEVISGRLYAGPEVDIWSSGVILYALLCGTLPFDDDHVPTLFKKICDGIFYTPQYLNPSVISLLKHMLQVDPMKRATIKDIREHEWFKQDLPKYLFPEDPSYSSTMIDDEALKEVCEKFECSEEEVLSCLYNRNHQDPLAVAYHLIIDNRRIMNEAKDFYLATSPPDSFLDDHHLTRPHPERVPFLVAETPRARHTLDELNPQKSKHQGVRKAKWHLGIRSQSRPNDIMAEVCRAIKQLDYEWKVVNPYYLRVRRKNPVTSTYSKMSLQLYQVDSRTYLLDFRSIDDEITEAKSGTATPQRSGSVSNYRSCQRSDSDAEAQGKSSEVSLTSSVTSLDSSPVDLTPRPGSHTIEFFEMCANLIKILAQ
T2 sequence (Q9Y478 whole entry): as the sequence (Q9Y478 whole entry) above
T2 sequence (P54619 whole entry): as the sequence (P54619 whole entry) above
Method: as §1

primary hepatocytes = experiment: Lipogenesis ([1-14C]-acetate incorporation into fatty acids) in primary hepatocytes; type: cell-based, mouse; details: 1 h at 37 C, varying concentrations
Method: Hepatocyte isolation: The liver was first perfused with 50 ml perfusion buffer (Krebs-Hepes buffer with […] EDTA), followed with 50 ml collagenase A buffer (Krebs-Hepes buffer with 5 mM CaCl2 and 0.5 mg/ml collagenase). […] Hepatocytes were left to attach (3-4 h) and cultured overnight in M199 supplemented with antibiotics and 100 nM dexamethasone. Cells were used for experiments the following morning. For primary hepatocyte isolation see Example 4. For lipogenesis measurements in primary hepatocytes, cells were seeded at 600 K cells per well in a 6-well plate overnight. Media was replaced with fresh M199 media alone for 2 hours prior to incubation with varying concentrations of Lusianthridin for 1 h at 37 C, in the presence of [1-^14C]-acetate. The incorporation of [^14C] into fatty acids was determined in the lower organic layer after separation from the aqueous phase. […] Lipogenesis is controlled by the AMPK substrate ACC, and phosphorylation and inhibition of ACC by AMPK, leads to a decrease in lipogenesis. Lipogenesis was measured in primary hepatocytes by determining the incorporation of ^14C-labelled acetate into fatty acids. Lipogenesis was monitored in the presence or absence of varying concentrations of Lusianthridin for 1 h at 37 C. […] This observation is consistent with its ability to activate AMPK in hepatocytes, which leads to the phosphorylation and inhibition of ACC.

[4] = target: T3, AMPK α2β1γ1 S108A mutant (211 S108A) (Homo sapiens, UniProt P54619+P54646+Q9Y478, S108A); experiment: AMPK in vitro activity assay (HTRF-KinEASE), β1 S108A mutant; type: biochemical
T3 construct: His; made in house; host or cells: bacteria
T3 sequence (P54646 whole entry): as the sequence (P54646 whole entry) above
T3 sequence (Q9Y478 whole entry S108A): as the sequence (Q9Y478 whole entry) above, with S108A counted along it
T3 sequence (P54619 whole entry): as the sequence (P54619 whole entry) above
Method: as §1

AMPK α2β2γ1 (221) = target: T4, AMPK α2β2γ1 (221) (Homo sapiens, UniProt O43741+P54619+P54646); experiment: AMPK in vitro activity assay (HTRF-KinEASE), β2-containing complex; type: biochemical; details: fold activation vs complex without compound
T4 construct: His; made in house; host or cells: bacteria
T4 sequence (P54646 whole entry): as the sequence (P54646 whole entry) above
T4 sequence (O43741 whole entry): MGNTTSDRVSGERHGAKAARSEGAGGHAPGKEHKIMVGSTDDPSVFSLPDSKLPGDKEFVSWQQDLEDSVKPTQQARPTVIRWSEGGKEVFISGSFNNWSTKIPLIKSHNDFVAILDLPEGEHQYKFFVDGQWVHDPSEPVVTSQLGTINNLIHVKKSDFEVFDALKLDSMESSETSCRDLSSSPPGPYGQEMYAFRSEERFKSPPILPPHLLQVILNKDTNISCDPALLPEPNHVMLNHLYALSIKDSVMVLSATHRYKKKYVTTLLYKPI
T4 sequence (P54619 whole entry): as the sequence (P54619 whole entry) above
Method: as §1

[5] = system: mouse primary hepatocytes; experiment: MTT cytotoxicity assay in mouse primary hepatocytes; details: 1 h at 37 C, Lusianthridin up to 100 μM
[6] = target: T5, AMPK α2β1γ1 R298G (211 R298G) mutant (Homo sapiens, UniProt P54619+P54646+Q9Y478, R299G); experiment: AMPK in vitro activity assay (HTRF-KinEASE), γ1 R298G mutant; type: biochemical; details: mutation in the γ1 AMP binding pocket
T5 construct: His; made in house; host or cells: bacteria
T5 sequence (P54646 whole entry): as the sequence (P54646 whole entry) above
T5 sequence (Q9Y478 whole entry): as the sequence (Q9Y478 whole entry) above
T5 sequence (P54619 whole entry R299G): as the sequence (P54619 whole entry) above, with R299G counted along it
Method: as §1

Structure (SMILES): Oc1ccc2c(c1)CCc1cc(O)cc(O)c1-2 [Compound 4, 9,10-Dihydrophenanthrene-2,4,7-triol]
fold increase in glucose uptake relative to control [2]: ~2 fold
activation of α2β1γ1 ΔCBM mutant [3]: did not activate
activation of bacterially-expressed AMPKα1β1γ1 complexes (AMPKα1β1γ1 (111)): activates
rate of lipogenesis (DPM per μg of protein) (primary hepatocytes): dose-dependent decrease
activation of bacterially-expressed AMPKα2β1γ1 complexes (AMPKα2β1γ1 (211)): activate
phosphorylation of the AMPK substrate ACC (pACC HTRF) [1]: increase
activation of AMPK complexes with the β1 S108A mutation [4]: did not activate
activation of β2-containing AMPK complexes (α2β2γ1) (AMPK α2β2γ1 (221)): did not activate

Structure (SMILES): N#CC(C#N)=NNc1ccc(OC(F)(F)F)cc1 [FCCP, carbonyl cyanide P-(trifluoromethoxy) phenylhydrazone]
cell viability (MTT, percentage of viable cells) [5]: robust decrease in cell viability

Structure (SMILES): CC[C@H]1/C=C/C=C/C[C@@H](C)[C@H](O)[C@@](C)(O)C(=O)[C@@H](C)[C@H](O)[C@@H](C)C(=O)[C@@H](C)[C@H](O)[C@@H](C)/C=C/C(=O)O[C@@H]2[C@H](C)[C@H](CC1)O[C@]1(CC[C@H](C)[C@H](C[C@@H](C)O)O1)[C@H]2C [Oligomycin]
cell viability (MTT, percentage of viable cells) [5]: robust decrease in cell viability

Second part, led by results:

activation of bacterially-expressed AMPKα2β1γ1 complexes (AMPKα2β1γ1 (211)): activate
Structure (SMILES): COc1cc(O)c2c(c1)CCc1cc(O)c(O)cc1-2 [Compound 2, 7-Methoxy-9,10-dihydrophenanthrene-2,3,5-triol]
phosphorylation of the AMPK substrate ACC (pACC HTRF) [1]: increase

activation of AMPK α2β1γ1 γ1 R298G mutant complexes [6]: impaired
Structure (SMILES): Nc1ncnc2c1ncn2[C@@H]1O[C@H](COP(=O)(O)O)[C@@H](O)[C@H]1O [AMP, reference compound]

activation of bacterially-expressed AMPKα2β1γ1 complexes (AMPKα2β1γ1 (211)): activate
Structure (SMILES): COc1cc(O)c2c(c1)CCc1ccc(O)cc1-2 [Compound 5, 7-Methoxy-9,10-dihydrophenanthrene-3,5-diol]
phosphorylation of the AMPK substrate ACC (pACC HTRF) [1]: increase

activation of bacterially-expressed AMPKα2β1γ1 complexes (AMPKα2β1γ1 (211)): activate
Structure (SMILES): Oc1ccc2c(c1)CCc1cccc(O)c1-2 [Compound 3, 9,10-Dihydrophenanthrene-2,5-diol]
phosphorylation of the AMPK substrate ACC (pACC HTRF) [1]: increase
